Legend:
Mer (Ba/F3 cells) = biological target: T1, Mer (Ba/F3 cells) (Homo sapiens, UniProt Q12866); test: BaF3 viability assay, Mer-dependent cells; assay type: cell-based; conditions: read-out: Cellular Mer activity by Ba/F3 assay (IC50)
T1 sequence (Q12866 1-999): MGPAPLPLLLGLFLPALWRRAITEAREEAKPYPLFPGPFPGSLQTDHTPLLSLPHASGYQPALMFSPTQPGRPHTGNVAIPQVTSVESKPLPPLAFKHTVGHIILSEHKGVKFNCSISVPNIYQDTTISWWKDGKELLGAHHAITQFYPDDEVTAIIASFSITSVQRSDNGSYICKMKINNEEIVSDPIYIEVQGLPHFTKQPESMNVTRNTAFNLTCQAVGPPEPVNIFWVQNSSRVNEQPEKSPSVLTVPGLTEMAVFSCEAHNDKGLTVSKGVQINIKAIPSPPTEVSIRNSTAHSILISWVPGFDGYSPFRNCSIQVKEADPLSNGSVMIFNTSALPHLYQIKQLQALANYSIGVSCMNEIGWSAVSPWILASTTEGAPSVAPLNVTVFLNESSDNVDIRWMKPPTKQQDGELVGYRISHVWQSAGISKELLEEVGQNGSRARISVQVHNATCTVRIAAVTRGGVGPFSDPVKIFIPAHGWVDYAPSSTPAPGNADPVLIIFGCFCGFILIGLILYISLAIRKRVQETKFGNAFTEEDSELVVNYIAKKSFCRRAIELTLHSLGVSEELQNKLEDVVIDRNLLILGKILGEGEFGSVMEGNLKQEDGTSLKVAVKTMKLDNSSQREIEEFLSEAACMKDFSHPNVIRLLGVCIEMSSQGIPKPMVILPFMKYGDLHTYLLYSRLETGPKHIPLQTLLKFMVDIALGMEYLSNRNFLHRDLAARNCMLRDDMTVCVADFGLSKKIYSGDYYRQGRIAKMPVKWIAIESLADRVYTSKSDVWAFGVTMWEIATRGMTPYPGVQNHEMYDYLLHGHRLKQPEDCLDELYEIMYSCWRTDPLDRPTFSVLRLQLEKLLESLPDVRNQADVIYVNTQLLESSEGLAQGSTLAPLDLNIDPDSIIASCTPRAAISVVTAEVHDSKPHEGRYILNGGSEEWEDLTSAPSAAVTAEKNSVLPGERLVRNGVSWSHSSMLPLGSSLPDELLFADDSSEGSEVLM
Text: (§1) In this system, IL-3-dependent Ba/F3 cells are modified to express an activated recombinant kinase (in the present case Axl, Mer and CSF1R). Following removal of IL-3, the modified cells are dependent on the activity of the recombinant kinase for survival and proliferation. Inhibition of such kinase(s) through test compounds reduces survival and proliferation of the cells.
(§2) Cell lines were maintained in growth media (GM) consisting of RPMI 1640 supplemented with 10% FBS. Cells in logarithmic-phase growth were harvested and 5,000 cells were distributed into each well of a 384-well plate in 50 μl GM. Parental cells (or experimental assays where specified) were further supplemented with 2 ng/ml IL-3 to support cell growth and survival. Fifty nanoliters of the indicated reference standard or experimental compound were added to appropriate wells (in duplicate) and the cells were cultured for 48 h at 37° C./5% CO2. Viability was determined by adding 10 μl Cell Titer Glo and measuring luminescence, which is reported as relative light units (RLU) measured in counts per second. The following calculations and formulas are used for data analysis using GraphPad Prism software: The curve fitting was made using the Dose response curves-Inhibition.

Axl (Ba/F3 cells) = biological target: T2, Axl (Ba/F3 cells) (Homo sapiens, UniProt P30530); test: BaF3 viability assay, Axl-dependent cells; assay type: cell-based; conditions: read-out: Cellular Axl activity by Ba/F3 assay (IC50)
T2 sequence (P30530 1-894): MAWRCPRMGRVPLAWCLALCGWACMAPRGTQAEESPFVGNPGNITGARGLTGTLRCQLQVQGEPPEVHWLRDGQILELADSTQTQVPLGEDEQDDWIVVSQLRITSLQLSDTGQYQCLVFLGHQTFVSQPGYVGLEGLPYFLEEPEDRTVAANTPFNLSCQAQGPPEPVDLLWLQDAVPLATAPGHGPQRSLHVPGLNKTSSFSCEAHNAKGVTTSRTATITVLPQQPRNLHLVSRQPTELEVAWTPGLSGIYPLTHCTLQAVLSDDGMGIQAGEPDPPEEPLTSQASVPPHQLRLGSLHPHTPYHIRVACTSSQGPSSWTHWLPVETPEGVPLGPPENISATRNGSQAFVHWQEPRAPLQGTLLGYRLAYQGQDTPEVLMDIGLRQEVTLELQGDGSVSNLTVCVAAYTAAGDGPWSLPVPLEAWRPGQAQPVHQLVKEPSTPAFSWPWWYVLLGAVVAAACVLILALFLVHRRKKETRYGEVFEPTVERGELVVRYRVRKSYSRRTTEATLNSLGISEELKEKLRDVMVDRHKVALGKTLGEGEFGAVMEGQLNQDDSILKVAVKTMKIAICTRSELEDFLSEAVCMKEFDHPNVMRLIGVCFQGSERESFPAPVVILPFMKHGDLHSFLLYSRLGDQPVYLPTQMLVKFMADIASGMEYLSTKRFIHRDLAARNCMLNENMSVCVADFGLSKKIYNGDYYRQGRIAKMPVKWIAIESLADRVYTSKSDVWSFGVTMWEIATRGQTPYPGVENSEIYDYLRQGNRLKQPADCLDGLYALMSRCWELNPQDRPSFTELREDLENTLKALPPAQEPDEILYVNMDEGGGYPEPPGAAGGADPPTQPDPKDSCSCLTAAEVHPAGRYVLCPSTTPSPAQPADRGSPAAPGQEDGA
Text: as §1, §2

| SMILES | GI50 (Mer (Ba/F3 cells)) [nM] | GI50 (Axl (Ba/F3 cells)) [nM] |
| --- | --- | --- |
| COCCn1cc(OCC(F)(F)F)c(C(=O)Nc2ccc(Oc3ccnc4cc(OC)c(OC)cc34)cn2)n1 [Compound 10] | < 1000 | < 1000 |
| CCn1cc(OCC(F)(F)F)c(C(=O)Nc2ccc(Oc3ccnc4cc(OC)c(OC)cc34)cn2)n1 [Compound 4] | < 1000 | < 1000 |
| CCCn1cc(OCC(F)F)c(C(=O)Nc2ccc(Oc3ccnc4cc(OC)c(OC)cc34)cn2)n1 [Compound 12] | < 1000 | < 1000 |
| COc1cc2nccc(Oc3ccc(NC(=O)c4n[nH]cc4OCC(F)(F)F)nc3)c2cc1OC [Compound 16] | < 1000 | < 1000 |
| CCCn1cc(OCC(F)(F)F)c(C(=O)Nc2ccc(Oc3ccnc4cc(OC)c(OC)cc34)cn2)n1 [Compound 7] | < 1000 | < 1000 |

— patent publication US12162858B2, “Quinoline derivatives as inhibitors of AXL/MER RTK and CSF1R” (QURIENT CO., LTD., priority 2018, dated 2024)
